Where two headings read alike, the source gives them in different places.
Columns and labels:
[1] = system: A431-FBP cells; experiment: Inhibition of growth of A431-FBP cells (A431 transfected with the α-FR); assay type: cell-based, human; conditions: for A431-FBP: fold increased IC50 in presence of folic acid: 1 μM FA; for activity in A431-FBP cells (in words): α-FR mediated uptake
From the text: (§1) CB300945, the (RS)-C2-CH2OH analogue of the known cyclopenta[g]-quinazoline, CB300638 was synthesised as in Example 1. In addition, the C2-NH2 was made as a comparative example. […] The human A431-FBP cell line was transfected with the α-FR and sensitivity compared with the A431 cell line. Human nasopharengeal KB cells constitutively overexpress this receptor (see Bagnoli et al. Oncogene, 19, 4754-4763, 2000).

[2] = system: A431 cells; experiment: Inhibition of growth of A431 (neo-transfected, not expressing α-FR) cells; assay type: cell-based, human; conditions: for A431: fold increased IC50 in presence of folic acid: 1 μM FA
From the text: as §1

[3] = molecular target: T1, α-FR of L1210-FBP cells (Mus musculus, UniProt P35846); experiment: Binding to the α-FR relative to folic acid, L1210-FBP cells; conditions: >1 = binding greater than folic acid
T1 construct: endogenous in cells; host or cells: mouse L1210-FBP leukaemia cells

[4] = system: KB cells; experiment: Inhibition of growth of KB cells (constitutively overexpress α-FR); assay type: cell-based, human; conditions: for KB: fold increased IC50 in presence of folic acid: 1 μM FA
From the text: as §1

[5] = Homo sapiens, A-431, 1 nM LV, read-out: Inhibition of cell growth, IC50, A431-FBP
[6] = Homo sapiens, A-431, read-out: Inhibition of cell growth, IC50, A431-FBP + 1 μM FA, 1 nM LV, + 1 μM folic acid
[7] = Homo sapiens, A-431, read-out: Inhibition of cell growth, IC50, A431-FBP + 1 μM FA, 20 nM LV, + 1 μM folic acid
[8] = Homo sapiens, A-431, 1 nM LV, read-out: Inhibition of cell growth, IC50, A431
[9] = Homo sapiens, A-431, read-out: Inhibition of cell growth, IC50, A431 + 1 μM FA, 1 nM LV, + 1 μM folic acid
[10] = Homo sapiens, KB, 1 nM LV, read-out: Inhibition of cell growth, IC50, KB
[11] = Homo sapiens, KB, read-out: Inhibition of cell growth, IC50, KB + 1 μM FA, 1 nM LV, + 1 μM folic acid
[12] = Homo sapiens, KB, read-out: Inhibition of cell growth, IC50, KB + 1 μM FA, 20 nM LV, + 1 μM folic acid
[13] = 20 nM LV, read-out: Inhibition of cell growth, IC50, A431
[14] = Homo sapiens, A-431, read-out: Inhibition of cell growth, IC50, A431 + 1 μM FA, 20 nM LV, + 1 μM folic acid

T1 sequence (P35846 25-232): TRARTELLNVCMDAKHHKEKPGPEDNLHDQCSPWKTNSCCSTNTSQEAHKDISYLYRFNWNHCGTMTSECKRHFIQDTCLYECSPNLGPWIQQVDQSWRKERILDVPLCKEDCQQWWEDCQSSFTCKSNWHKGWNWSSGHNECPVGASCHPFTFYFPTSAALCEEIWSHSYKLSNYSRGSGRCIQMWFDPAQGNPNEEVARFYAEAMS

| Structure (SMILES) | A431-FBP: fold increased sensitivity compared with A431 ([1]; 1 nM LV) | A431-FBP: fold increased IC50 in presence of folic acid ([1]; 1 nM LV) | A431-FBP: fold increased sensitivity compared with A431 ([1]; 20 nM LV) | A431-FBP: fold increased IC50 in presence of folic acid ([1]; 20 nM LV) | IC50 [1, 5] | IC50 [1, 6] | IC50 [1, 7] | activity in A431-FBP cells (in words) [1] | A431: fold increased IC50 in presence of folic acid ([2]; 1 nM LV) | A431: fold increased IC50 in presence of folic acid ([2]; 20 nM LV) | IC50 [2, 8] | IC50 [2, 9] | relative binding affinity (inverse relative affinity) for the α-FR [3] | KB: fold increased IC50 in presence of folic acid ([4]; 1 nM LV) | KB: fold increased IC50 in presence of folic acid ([4]; 20 nM LV) | IC50 [4, 10] | IC50 [4, 11] | IC50 [4, 12] | IC50 [2, 13] | IC50 [2, 14] | also measured |
| --- | --- | --- | --- | --- | --- | --- | --- | --- | --- | --- | --- | --- | --- | --- | --- | --- | --- | --- | --- | --- | --- |
| C#CCN(c1ccc(C(=O)N[C@@H](CCC(=O)N[C@H](CCC(=O)O)C(=O)O)C(=O)O)cc1)C1CCc2cc3nc(C)[nH]c(=O)c3cc21 (mixture of isomers) [CB300638 (RS)] | (170) fold | (85) fold | (220) fold | (130) fold | 0.0072 ± 0.001 µM | 0.61 ± 0.012 µM | 0.87 ± 0.29 µM | highly sensitive | (1) fold | (1) fold | 1.2 ± 0.21 µM | 0.98 ± 0.23 µM | 0.57 | (76) fold | (140) fold | 0.0079 ± 0.001 µM | 0.61 ± 0.012 µM | 0.76 ± 0.17 µM |  |  |  |
| C#CCN(Cc1cc2c(O)nc(C)nc2cc1C)c1ccc(C(=O)N[C@@H](CCc2nnn[nH]2)C(=O)O)c(F)c1 [ZD9331] | (7) fold | (3) fold | (4) fold | (2) fold |  |  |  |  | (1) fold | (1) fold |  |  |  | (3) fold | (3) fold |  |  |  | 0.082 ± 0.042 µM |  | IC50 ([1]; 1 nM LV, read-out: Inhibition of cell growth, IC50, A431-FBP): 0.0088 ± 0.0052 µM; IC50 ([1]; 20 nM LV, read-out: Inhibition of cell growth, IC50, A431-FBP): 0.018 ± 0.0097 µM; IC50 ([1]; read-out: Inhibition of cell growth, IC50, A431-FBP + 1 μM FA, 1 nM LV, + 1 μM folic acid): 0.027 ± 0.0076 µM; IC50 ([1]; read-out: Inhibition of cell growth, IC50, A431-FBP + 1 μM FA, 20 nM LV, + 1 μM folic acid): 0.034 ± 0.0087 µM; IC50 ([2]; 1 nM LV, read-out: Inhibition of cell growth, IC50, A431): 0.061 ± 0.014 µM; IC50 ([2]; read-out: Inhibition of cell growth, IC50, A431 + 1 μM FA, 1 nM LV, + 1 μM folic acid): 0.056 ± 0.025 µM; IC50 ([2]; read-out: Inhibition of cell growth, IC50, A431 + 1 μM FA, 20 nM LV, + 1 μM folic acid): 0.067 ± 0.029 µM; IC50 ([4]; 1 nM LV, read-out: Inhibition of cell growth, IC50, KB): 0.0021 ± 0.0013 µM; IC50 ([4]; 20 nM LV, read-out: Inhibition of cell growth, IC50, KB): 0.0036 ± 0.0021 µM; IC50 ([4]; read-out: Inhibition of cell growth, IC50, KB + 1 μM FA, 1 nM LV, + 1 μM folic acid): 0.00641 ± 0.0035 µM; IC50 ([4]; read-out: Inhibition of cell growth, IC50, KB + 1 μM FA, 20 nM LV, + 1 μM folic acid): 0.012 ± 0.005 µM |
| C#CCN(c1ccc(C(=O)N[C@@H](CCC(=O)N[C@H](CCC(=O)O)C(=O)O)C(=O)O)cc1)C1CCc2cc3nc(N)[nH]c(=O)c3cc21 (mixture of isomers) [CB300944 (RS)] | (3) fold | (1) fold | (3) fold | (1) fold | 9.1 ± 0.83 µM | 12 ± 2.1 µM | 7.1 ± 1 µM | very little activity | (1) fold | (1) fold | 24 ± 3.6 µM | 24 ± 2.9 µM | 0.57 | (1) fold | (1) fold | 19 µM | 19 ± 1.5 µM | 19 ± 1.2 µM | 27 µM | 22 µM | IC50 ([1]; Homo sapiens, A-431, 20 nM LV, read-out: Inhibition of cell growth, IC50, A431-FBP): 8.3 ± 0.64 µM; IC50 ([2]; Homo sapiens, A-431, 20 nM LV, read-out: Inhibition of cell growth, IC50, A431): 23 µM; IC50 ([4]; Homo sapiens, KB, 20 nM LV, read-out: Inhibition of cell growth, IC50, KB): 19 ± 0.58 µM |
| C#CCN(c1ccc(C(=O)N[C@@H](CCC(=O)N[C@H](CCC(=O)O)C(=O)O)C(=O)O)cc1)C1CCc2cc3nc(CO)[nH]c(=O)c3cc21 (mixture of isomers) [CB300945 (RS), N—{N-{4-[N-((6RS)-2-Hydroxymethyl-4-oxo-3,4,7,8-tetrahydro-6H-cyclopenta[g]quinazolin-6-yl)-N-(prop-2-ynyl)amino]benzoyl}-L-γ-glutamyl}-D-glutamic acid] | (3800) fold | (3100) fold | (4700) fold | (3100) fold | 0.0019 ± 0.0006 µM | 5.7 ± 1.3 µM | 6.5 ± 0.86 µM | highly potent |  | (1) fold | 7.2 ± 3.6 µM | 7.3 ± 3.3 µM | 0.71 | (2200) fold | (2100) fold |  | 7.6 ± 1.3 µM | 7.3 ± 2 µM |  | 9.3 ± 3.5 µM |  |
| C#CCN(c1ccc(C(=O)N[C@@H](CCC(=O)N(C)[C@@H](CCC(=O)O)C(=O)O)C(=O)O)cc1)C1CCc2cc3nc(CO)[nH]c(=O)c3cc21 (mixture of isomers) [CB300960 (R, S), N—{N-{4-[N-((6RS)-2-hydroxymethyl-4-oxo-3,4,7,8-tetrahydro-6H-cyclopenta[g]quinazolin-6-yl)-N-(prop-2-ynyl)amino]benzoyl}-L-γ-glutamyl}-N-methyl-L-glutamic acid] |  |  |  | (180) fold |  |  | 5.1 µM |  |  | (1) fold |  |  |  |  |  |  |  |  |  |  |  |

— patent publication US8552016B2, “Anti-cancer cyclopenta(g)quinazoline compounds” (BTG International Limited, priority 2001, dated 2013)
